Experiment [1] deals with chloroquine sensitive (D6) strain of P. falciparum. The experiment is described as follows: In vitro anti-malarial activity assay (plasmodial LDH activity), D6 clone. Format: cell-based. Conditions: Plasmodium falciparum, read-out: P. falciparum (D6 Clone) IC50. The protocol:
(§1) In vitro anti-malarial activity of the representative compounds was determined against chloroquine sensitive (D6) and chloroquine-resistant (W2) strains of P. falciparum.
(§2) The anti-malarial activity was determined by measuring plasmodial LDH activity as described earlier (Jain, M.; Khan, S. I.; Tekwani, B. L.; Jacob, M. R.; Singh, S.; Singh, P. P.; Jain, R. Synthesis, anti-malarial, antileishmanial, and antimicrobial activities of some 8-quinolinamine analogues. Bioorg. Med. Chem. 2005, 13, 4458-4466). A suspension of red blood cells infected with D6 or W2 strains of P. falciparum (200 with 2% parasitemia and 2% hematocrit in RPMI 1640 medium supplemented with 10% human serum and 60 µg/mL Amikacin) was added to the wells of a 96-well plate containing 10 μL of serially diluted test samples. The plate was flushed with a gas mixture of 90% N2, 5% O2, and 5% CO2 and incubated at 37° C. for 72 h in a modular incubation chamber (Billups-Rothenberg, Calif.). Parasitic LDH activity was determined by using Malstat™ reagent (Flow Inc., Portland, Oreg.) according to the procedure of Makler and Hinrichs (M. T. Makler and D. J. Hinrichs, Measurement of the lactate dehydrogenase activity of Plasmodium falciparum as an assessment of parasitemia. J. Am. J. Trop. Med. Hyg. 1993, 48(2):205-210). Briefly, 20 μl, of the incubation mixture was mixed with 100 μL of the Malstat™ reagent and incubated at room temperature for 30 min Twenty microliters of a 1:1 mixture of NBT/PES (Sigma, St. Louis, Mo.) was then added and the plate was further incubated in the dark for 1 h. The reaction was then stopped by the addition of 100 μL of a 5% acetic acid solution. The plate was read at 650 nm. Artemisinin and chloroquine were included in each assay as the drug controls. IC50 values were computed from the dose-response curves. To determine the selectivity index of anti-malarial activity of compounds, their cytotoxicity in vitro to mammalian cells was also determined. The assay was performed in 96-well tissue culture-treated plates as described earlier (J. Mustafa, S. I. Khan, G. Ma, L. A. Walker and I. A. Khan, Synthesis and Anticancer Activities of Fatty Acid Analogs of Podophyllotoxin. Lipids. 2004, 39(2):167-172). Vero cells (monkey kidney fibroblasts) were seeded to the wells of 96-well plate at a density of 25,000 cells/well and incubated for 24 h. Samples at different concentrations were added and plates were again incubated for 48 h. The number of viable cells was determined by Neutral Red assay. IC50 values were obtained from dose-response curves. Doxorubicin was used as a positive control.

The subject of experiment [2] is chloroquine-resistant (W2) strain of P. falciparum. The experiment is described as follows: In vitro anti-malarial activity assay (plasmodial LDH activity), W2 clone. Format: cell-based. The note with it: Plasmodium falciparum, read-out: P. falciparum (W2 Clone) IC50. How it is done:
as §1, §2

Experiment [3] has as its system Plasmodium berghei (chloroquine sensitive strain). The experiment is described as follows: In vivo anti-malarial activity, 4-day suppressive test in infected mice. Conditions: Swiss albino mice; for Day 4 % Suppression / Day 5 % Suppression / Day 6 % Suppression: intragastric. The protocol:
Tests were performed in a 4-day suppressive standard test using the methods of David, Thurston and Peters (David, A. F., Philip, J. R., Simon, L. C., Reto B., and Solomon N. Antimalarial drug discovery: Efficacy models for compound screening. Nature Reviews. 2004; 3: 509-520). The plasmodium species, that is most widely employed in rodent malaria parasite-Plasmodium berghei (chloroquine sensitive strain), was used to infect Swiss albino mice for a fourday suppressive test. The P. berghei was subsequently maintained in the laboratory by serial blood passage from mouse to mouse. For the study, a donor mouse with a rising parasitemia of 20% was sacrificed and its blood was collected in a slightly heparinized syringe from the auxiliary vessels. The blood was diluted with Trisodium Citrate (TC) medium so that each 0.2 ml contained approximately 107 infected red cells. Each animal received inoculums of about […], which is expected to produce a steadily rising infection in mice.
Male Swiss albino mice were used. The mice were allowed to acclimatize to the laboratory environment under a controlled temperature of 20° C. and at optimum humidity for at least three days before being subjected to the experiments. All of the mice were divided into groups of six, and infected with malaria parasites.
The infection of the recipient mice was initiated by needle passage of the above mentioned parasite preparation, from the donor to healthy test animals via an intraperitoneal route. Therefore, P. berghei infected red blood cells were intraperitoneally injected into the mice from the blood diluted with TC medium so that each 0.2 ml had approximately 106-107 infected red cells (parasite per kg of body weight). Each mouse was infected with single inoculums of 0.2 ml blood.
The 4-day procedures were started on Mondays while blood smears for parasitemia were collected on Fridays. The infected mice were weighed, randomly divided into treatment, vehicle and standard drug groups. […] The compounds were administered through intra gastric route using the stomach tube to ensure the safe ingestion of the compounds and the vehicle.
Thin smears of blood films were obtained from the peripheral blood on the tail from each mouse on day four after infection. The smears were placed on microscopic slides, fixed with methanol and stained with Gemsa at pH 7.2, for parasitemia. […] The number of parasitized erythrocytes in each of the 10-50 such fields were counted three times and the average was calculated to give the Parasitemia of each individual animal. Percentage of suppression was calculated by using the following formula. % Suppression=(Parasitemia in negative control−Parasitemia in study group)/Parasitemia in negative control

For experiment [4], the target named is T1, Falcipain-2 protease (FP-2) (Plasmodium falciparum, UniProt Q8I6U4).
T1 construct: The falcipain-2 fragment was amplified by the polymerase chain reaction (PCR); His6 (N-terminal MRGS-His6 supplied by the pQE-30 vector; own knowledge of the vector, consistent with the Ni2+-NTA purification) (N); made in house; host or cells: E. coli M15
T1 sequence (Q8I6U4 244-484): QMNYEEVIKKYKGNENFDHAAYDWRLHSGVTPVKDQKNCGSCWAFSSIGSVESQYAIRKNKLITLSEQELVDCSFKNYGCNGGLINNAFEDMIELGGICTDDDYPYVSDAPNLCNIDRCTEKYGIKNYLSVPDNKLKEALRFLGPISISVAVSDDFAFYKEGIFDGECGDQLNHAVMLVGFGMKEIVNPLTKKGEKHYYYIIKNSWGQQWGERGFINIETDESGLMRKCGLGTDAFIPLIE
The experiment is described as follows: Falcipain-2 protease inhibition assay (fluorescence reaction rate). Conditions: for inhibition at 10 µM: 10 μM compound, pH 5.5; for IC50: pH 5.5, sigmoidal fit, read-out: IC50 against falcipain-2. Format: biochemical. The protocol:
(1) Expression and Purification of Falcipain-2 and Refolding of FP-2 Inclusion Bodies Protein
(2) The Determination of the Invention Compounds' Inhibitory Activity Against FP-2
FP-2 protein and test compounds dissolved in DMSO (prepared from EXAMPLES 1-4) were added to 197 μL, buffer, containing 100 mM NaOAc, 10 mM DTT, pH 5.5 (final concentration 10 μg/mL). The test compound were Stenopalustroside A, Stenopalustroside D, Tiliroside, kaempferol 3-O-β-(6″-caffeoylglucoside) and kaempferol 3-(2,4-di-E-p-coumaroyl-rhamnoside), respectively, which final concentration were 10 μM and 0 μM (as negative control). These compounds were incubated for […] and employed MD SpectraMax M5 Microplate Reader to continuous detect the RFU for 15 min, at excitation 355 nm and emission 460 nm Calculate the reaction rate Km, and obtain percentage inhibitory rate of the test compound at 10 μM by the following equation,
The equation is: (Kmof control group−Kmof experimental group)/Kmof control group×100%
Select […] compounds with over 50% inhibitory rate to detect IC50, and utilize the compound solutions prepared from EXAMPLE 1 to EXAMPLE 4, Stenopalustroside A, tiliroside kaempferol 3-O-β-(6″-caffeoylglucoside), and the experimental methods and system followed as EXAMPLE 6. According to FP-2 activity reaction rate Km with compounds at different concentrations, we can calculate the inhibitory rate of compounds against FP-2 at different concentration. The IC50 value was fitted with utilizing the Sigmoidal Equation by Origin software.

The mark [5] stands for this setting: D6, 72 h incubation, LDH readout.
Setting [6] is: W2, 72 h incubation, LDH readout.

The results in this text go back to US8846627B2, “Method for treatment of malaria” (The Second Military Medical University, priority 2009, dated 2014).

Read-outs that look alike come from different tables or passages of the source.

What is called IC50 is the concentration that gives 50% inhibition. The inhibition is the share of the control response that was lost under treatment. A low value points to a response near the control.

With `C[C@@H]1CC[C@H]2[C@@H](C)C(=O)O[C@@H]3O[C@@]4(C)CC[C@@H]1[C@]32OO4` [Artemisinine, reference compound], the IC50 in experiment [1] (setting [5]) and in experiment [2] (setting [6]) was below 26.4 µM in each case.

Turning to `CCN(CC)CCCC(C)Nc1ccnc2cc(Cl)ccc12` (stereo not shown) [Chloroquine, reference compound], the IC50 in experiment [1] (D6, 72 h) is below 26.4 µM. For the same compound, in experiment [3] (10 mg/kg daily for 4 days), the “Day 4 % Suppression” value is 100%, the “Day 5 % Suppression” value turned out to be 100% and the “Day 6 % Suppression” value came to 100%. In addition, the IC50 in experiment [2] (W2, 72 h) turned out to be 160 µM.

For `O=C(/C=C\c1ccc(O)cc1)OCC1O[C@@H](Oc2c(-c3ccc(O)cc3)oc3cc(O)cc(O)c3c2=O)C(O)[C@H](OC(=O)/C=C\c2ccc(O)cc2)[C@@H]1O` (stereo partly shown) [Stenopalustroside A], in experiment [1] (setting [5]), the IC50 was found to be 32.8 µM. In addition, in experiment [3] (200 mg/kg daily for 4 days), the “Day 4 % Suppression” value was determined as 34.7%, the “Day 5 % Suppression” value turned out to be 33.3% and the “Day 6 % Suppression” value is reported as 18.9%. In experiment [4], the inhibition at 10 µM is 53% and the IC50 worked out at 1.45 µM. Moreover, the IC50 in experiment [2] (setting [6]) was found to be 98.6 µM.

For the compound `O=C(/C=C\c1ccc(O)cc1)OCC1O[C@@H](Oc2c(-c3ccc(O)cc3)oc3cc(O)cc(O)c3c2=O)C(O)[C@H](OC(=O)/C=C/c2ccc(O)cc2)[C@@H]1O` (stereo partly shown) [Stenopalustroside D], the IC50 came out at 68.4 µM in experiment [1] (setting [5]) and 165 µM in experiment [2] (setting [6]). Besides, the “Day 4 % Suppression” value stood at 30.4% in experiment [3] (10 mg/kg daily for 4 days); 60.8% in experiment [3] (50 mg/kg daily for 4 days); 56.5% in experiment [3] (100 mg/kg daily for 4 days); 43.4% in experiment [3] (200 mg/kg daily for 4 days); 8.6% in experiment [3] (400 mg/kg daily for 4 days). In addition, the “Day 5 % Suppression” value is listed as 51.5% in experiment [3] (10 mg/kg daily for 4 days); 63.6% in experiment [3] (50 mg/kg daily for 4 days); 60.6% in experiment [3] (100 mg/kg daily for 4 days); 42.4% in experiment [3] (200 mg/kg daily for 4 days); 24.2% in experiment [3] (400 mg/kg daily for 4 days). The “Day 6 % Suppression” value in experiment [3] (10 mg/kg daily for 4 days) came out at 32.4%; in experiment [3] (50 mg/kg daily for 4 days), 58.3%; in experiment [3] (100 mg/kg daily for 4 days) it was 45.9%; in experiment [3] (200 mg/kg daily for 4 days), 37.8%; in experiment [3] (400 mg/kg daily for 4 days), 13.5%. Moreover, the maximum suppression ratio in experiment [3] (maximum over doses and days) is 60%. The inhibition at 10 µM in experiment [4] worked out at 39.4%.

For the compound `CC1O[C@@H](Oc2c(-c3ccc(O)cc3)oc3cc(O)cc(O)c3c2=O)C(OC(=O)/C=C/c2ccc(O)cc2)C(O)[C@H]1OC(=O)/C=C/c1ccc(O)cc1` (stereo partly shown) [kaempferol 3-(2,4-di-E-p-coumaroyl-rhamnoside)], the IC50 in experiment [1] (setting [5]) was 45.1 µM; in experiment [2] (setting [6]), 147 µM. Moreover, the “Day 4 % Suppression” value was found to be 34.7% in experiment [3] (50 mg/kg daily for 4 days) and 13.0% in experiment [3] (100 mg/kg daily for 4 days). For the same compound, the “Day 5 % Suppression” value in experiment [3] (50 mg/kg daily for 4 days) was 24.2%; in experiment [3] (100 mg/kg daily for 4 days), 21.2%; in experiment [3] (200 mg/kg daily for 4 days), 9.0%. Moreover, the “Day 6 % Suppression” value in experiment [3] (50 mg/kg daily for 4 days) is recorded as 29.7%; in experiment [3] (100 mg/kg daily for 4 days), 24.3%; in experiment [3] (200 mg/kg daily for 4 days), 5.4%. This compound also showed an inhibition at 10 µM in experiment [4] of 49.4%.

In the case of `O=C(/C=C/c1ccc(O)c(O)c1)OCC1O[C@@H](Oc2c(-c3ccc(O)cc3)oc3cc(O)cc(O)c3c2=O)C(O)C(O)[C@@H]1O` (stereo partly drawn) [kaempferol 3-O-β-(6″-caffeoylglucoside)], the IC50 in experiment [1] (setting [5]) was 55.8 µM; in experiment [4] it was 13.5 µM; in experiment [2] (setting [6]) it was 91.3 µM. Also, the “Day 4 % Suppression” value in experiment [3] (10 mg/kg daily for 4 days) is 20.6%; in experiment [3] (50 mg/kg daily for 4 days), 52.1%; in experiment [3] (100 mg/kg daily for 4 days), 13.0%; in experiment [3] (200 mg/kg daily for 4 days), 4.3%. Moreover, the “Day 5 % Suppression” value is recorded as 27.2% in experiment [3] (10 mg/kg daily for 4 days); 54.5% in experiment [3] (50 mg/kg daily for 4 days); 15.1% in experiment [3] (100 mg/kg daily for 4 days); 9.0% in experiment [3] (200 mg/kg daily for 4 days); 6.0% in experiment [3] (400 mg/kg daily for 4 days). The “Day 6 % Suppression” value in experiment [3] (10 mg/kg daily for 4 days) stood at 37.8%; in experiment [3] (50 mg/kg daily for 4 days), 45.9%; in experiment [3] (100 mg/kg daily for 4 days) it was 10.8%; in experiment [3] (200 mg/kg daily for 4 days) it was 5.4%. The same compound displayed an inhibition at 10 µM in experiment [4] of 53%.
